The test system of the experiment is Pancreas carcinoma cells. In words: Cancer cell invasion assay on humanized rats with implanted pancreas carcinoma cells. The format is in vivo. To be noted: for Tumor response, 2 w after end of therapy: 2 weeks after end of therapy; for Tumor response, 1 w of therapy: after 1 week of therapy; for Tumor response, 2 w of therapy: after 2 weeks of therapy. How it is done:
The cancer cell invasion assay was performed on humanized rats (Eyol, E. et al., Oncology Reports, 28: 2177-2187, 2012). Pancreas carcinoma cells were implanted. The successful implant was observed by luminescent imaging as well as by an increase in CXCR4 expression.
After a successful implant of carcinoma cells, the rats were treated with a peptide according to Seq ID No. 1 and Seq. ID No. 9 respectively. The results after 1 week of therapy (1 w of therapy), after 2 weeks of therapy (2 w of therapy) and 2 weeks after end of therapy are depicted in the below tables.

Experimental findings from patent US11124540B2, “Polypeptides for the treatment of diseases” (Neopep Pharma GmbH & Co., KG, priority 2017, dated 2021) are described below.

“ILRWSRKMPQFS (human) [Seq ID No. 9, Ile Leu Arg Trp Ser Arg Lys Met Pro Gln Phe Ser]”: where the note is “amount of peptide 35 mg”, the “Tumor response, 2 w after end of therapy” value is on record as “Tumor growth”. Where the note is “amount of peptide 70 mg”, the “Tumor response, 2 w after end of therapy” value is recorded as “Tumor growth” and the “Tumor response, 1 w of therapy” value is reported as “Tumor growth”.

“IVRWSKKVPQVS (human) [Seq ID No. 1, Ile Val Arg Trp Ser Lys Lys Val Pro Gln Val Ser]”: the “Tumor response, 2 w of therapy” value was “No tumor growth” (amount of peptide 7 mg), “Tumor growth” (amount of peptide 10 mg) and “Remission” (amount of peptide 70 mg). In addition, the “Tumor response, 2 w after end of therapy” value was “Tumor growth” (amount of peptide 10 mg), “Complete Remission” (amount of peptide 20 mg) and “Complete Remission” (amount of peptide 70 mg). In addition, the “Tumor response, 1 w of therapy” value (amount of peptide 10 mg) is “No tumor growth”; the “Tumor response, 1 w of therapy” value (amount of peptide 20 mg) is given as “No tumor growth”; the “Tumor response, 1 w of therapy” value (amount of peptide 70 mg) is listed as “No tumor growth”.
